From US20240150365A1 (Hotspot Therapeutics, Inc., priority 2022, published 2024)

Experiments:
[1] = system: NF-kB; test: NF-kB reporter assay in Jurkat cells stimulated with aCD3/aCD28/PMA; assay type: cell-based; settings: Homo sapiens, Jurkat, Jurkat cells, 1 hr compound incubation, aCD3/aCD28/PMA stimulation 4 hr, One-Glo readout; read-out: NF-kB Reporter Assay IC50
Method: Jurkat cells were maintained in complete RPMI 1640 media supplemented with 10% FBS. Prior to the assay, 120 nL of the serial diluted compound was added in each well of 384-well flat bottom white plate (Corning #3570) by using liquid handler Echo550. Jurkat cells were harvested by centrifugation at 120 g for 10 min and resuspended in fresh RPMI 1640 media without serum. 30 μL of cells (25,000 cells) were seeded in each well of 384-well plate containing compound. After 1 hr incubation at 37° C. in a 5% CO2 incubator, 10 μL of diluted aCD3/aCD28/PMA (final concentration at 5 μg/mL, 5 μg/mL and 0.03 μg/mL, respectively) in RPMI 1640 without serum were added to each well. After incubation at 37° C. in 5% CO2 for 4 hr, 30 μL of One-Glo reagent (Promega #E6120) was added into each well. The plate was left at room temperature for 5 min and the signal was measured on EnVision (PerkinElmer).
Compounds in which an IC50 was not measured are designated as “N/A”.

[2] = molecular target: T1, MALT1 (Homo sapiens, UniProt Q9UDY8); test: MALT-1 Fluorogenic Peptide Cleavage Assay (MALT1 inhibition assay); assay type: biochemical; settings: Avi-tagged FL MALT-1, Ac-LRSR-AMC peptide substrate, 30 min pre-incubation, 90 min reaction
T1 construct: Avi-tagged FL MALT-1 (Pharmaron, stored at −70° C.); Avi tag
T1 sequence (Q9UDY8 1-824): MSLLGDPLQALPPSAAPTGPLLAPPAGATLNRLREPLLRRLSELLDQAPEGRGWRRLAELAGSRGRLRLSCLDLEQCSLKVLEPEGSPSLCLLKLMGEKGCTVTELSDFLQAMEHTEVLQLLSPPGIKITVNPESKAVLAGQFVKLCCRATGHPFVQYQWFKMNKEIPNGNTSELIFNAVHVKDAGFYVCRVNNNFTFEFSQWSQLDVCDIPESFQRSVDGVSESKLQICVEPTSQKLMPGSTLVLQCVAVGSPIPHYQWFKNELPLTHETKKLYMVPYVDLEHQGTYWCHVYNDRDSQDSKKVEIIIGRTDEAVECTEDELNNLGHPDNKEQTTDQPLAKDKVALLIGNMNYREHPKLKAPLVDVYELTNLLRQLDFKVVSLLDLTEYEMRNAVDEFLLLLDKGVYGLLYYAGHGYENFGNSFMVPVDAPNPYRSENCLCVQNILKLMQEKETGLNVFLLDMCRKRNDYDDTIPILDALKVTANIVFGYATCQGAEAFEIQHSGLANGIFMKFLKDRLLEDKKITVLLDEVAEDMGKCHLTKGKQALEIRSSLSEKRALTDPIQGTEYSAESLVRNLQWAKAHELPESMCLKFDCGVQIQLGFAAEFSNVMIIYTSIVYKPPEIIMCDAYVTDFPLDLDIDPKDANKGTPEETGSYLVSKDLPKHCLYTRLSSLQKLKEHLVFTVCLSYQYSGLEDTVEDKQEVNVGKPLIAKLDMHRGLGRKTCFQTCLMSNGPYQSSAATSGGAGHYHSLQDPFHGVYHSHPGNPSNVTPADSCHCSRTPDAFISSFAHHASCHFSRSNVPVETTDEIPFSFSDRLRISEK
Method: Inhibition of MALT1 activity by the presence of small molecules was evaluated using MALT-1 Fluorogenic Peptide Cleavage Assay. The assay utilizes a quenched AMC-labelled peptide that contains the MALT-1 recognition sequence and cleavage site (LRSR). MALT-1 mediated cleavage of the peptide relieves the quenching and leads to an increase in fluorescence at excitation (342 nm) and emission (441 nm). The following reagents were obtained commercially and used to prepare standard reagent formulations as further described below: […] The standard reagent formulations used in this assay were prepared and stored as follows. A 1.1 M solution of sodium citrate (161.3 g, 500 mL) was prepared and stored at room temperature. A 10% (w/v) CHAPS solution (2.0 g, 20 mL) was prepared and stored at 4° C. A 500 mM HEPES solution having pH of 6.89 was prepared from 200 mL of a 1 M HEPES solution having a pH of 7.5 using concentrated hydrochloric acid and brought to a final volume of 400 mL with […]® H2O. The substrate, 10 mM Ac-LRSR-AMC Peptide, was prepared (10 mg, 1.370 mL DMSO) and stored at -20° C. Compounds were plated to provide a 2% DMSO final concentration using a ProxiPlate-384 Plus F Black 384-shallow well microplate. The assay-ready plates were equilibrated to room temperature. […] DMSO was added only when compound plates had not been DMSO-backfilled to 2%. MALT-1 was thawed and kept on ice. Peptide substrate was thawed on the bench under ambient conditions. A MALT-1 enzyme working stock was prepared from Avi-tagged FL MALT-1 (40 nM in a prepared reagent volume of 16.5 μL) and the reaction buffer (13.0 mL). MALT1 working stock (5 μL) was added to each well of the microplate. MALT-1 was pre-incubated with compounds for 30 minutes at room temperature. […] The plates were covered and incubated on the bench at room temperature for 90 minutes. Fluorescence intensity was determined using a CLARIOstar microplate reader (BMG LABTECH) using the optimised AMC mode. Before taking readings, a 70% gain was applied on the neutral control well. Compound data were normalised to % Inhibition and used to plot sigmoidal concentration response curves to yield various parameters including IC50. […] Compounds in which an IC50 was not measured are designated as “N/A”.

Row | Compound | IC50 [1] | IC50 [2]
1 | Cn1cc2ccc(Cl)c(NS(=O)(=O)c3ccc(-n4cc(C(F)(F)F)cn4)nc3)c2n1 [Example I-25, N-(6-Chloro-2-Methyl-2H-Indazol-7-yl)-6-(4-(Trifluoromethyl)-1H-Pyrazol-1-yl)Pyridine-3-Sulfonamide] | > 2500 nM | 1000 to 2500 nM
2 | CCc1ccc2cn(C)nc2c1NS(=O)(=O)c1ccc(-n2cc(C(F)(F)F)cn2)nc1 [Example I-26, N-(6-Ethyl-2-Methylindazol-7-yl)-6-[4-(Trifluoromethyl)Pyrazol-1-yl]pyridine-3-Sulfonamide] | > 2500 nM | < 400 nM
3 | COc1ccc2cn(C)nc2c1NS(=O)(=O)c1ccc(-n2cc(C(F)(F)F)cn2)nc1 [Example I-27, N-(6-Methoxy-2-Methylindazol-7-yl)-6-[4-(Trifluoromethyl)Pyrazol-1-yl]pyridine-3-Sulfonamide] | 1000 to 2500 nM | < 400 nM
4 | COc1ccc2cnn(C)c2c1NS(=O)(=O)c1ccc(-n2ncc(C(F)(F)F)n2)nc1 [Example I-28, N-(6-Methoxy-1-Methyl-1H-Indazol-7-yl)-6-(4-(Trifluoromethyl)-2H-1,2,3-Triazol-2-yl)Pyridine-3-Sulfonamide] | < 400 nM | 400 to 1000 nM
5 | COc1ccc2cnn(C)c2c1NS(=O)(=O)c1ccc(-n2cc(C(F)(F)F)nn2)nc1 [Example I-29, N-(6-Methoxy-1-Methyl-1H-Indazol-7-yl)-6-(4-(Trifluoromethyl)-1H-1,2,3-Triazol-1-yl)Pyridine-3-Sulfonamide] | < 400 nM | < 400 nM
6 | COc1ccc2cnn(C)c2c1N(C)S(=O)(=O)c1ccc(-n2ccc(C(F)(F)F)n2)nc1 [Example I-30, N-(6-Methoxy-1-Methylindazol-7-yl)-N-Methyl-6-[3-(Trifluoromethyl) Pyrazol-1-yl] Pyridine-3-Sulfonamide] | < 400 nM | < 400 nM
7 | Cc1ccc2cnn(C)c2c1NS(=O)(=O)c1ccc(-n2cc(C(F)(F)F)cn2)nc1 [Example I-31, N-(1,6-Dimethyl-1H-Indazol-7-yl)-6-(4-(Trifluoromethyl)-1H-Pyrazol-1-yl)Pyridine-3-Sulfonamide] | < 400 nM | < 400 nM
8 | COc1ccc2cnn(C)c2c1NS(=O)(=O)c1ccc(-n2cc(C(C)C)cn2)nc1 [Example I-32, 6-(4-Isopropyl-1H-Pyrazol-1-yl)-N-(6-Methoxy-1-Methyl-1H-Indazol-7-yl)Pyridine-3-Sulfonamide] | < 400 nM | < 400 nM
9 | CCc1ccc2cnn(C)c2c1NS(=O)(=O)c1ccc(-n2ccc(C)n2)nc1 [Example I-33, N-(6-Ethyl-1-Methyl-1H-Indazol-7-yl)-6-(3-Methyl-1H-Pyrazol-1-yl)Pyridine-3-Sulfonamide] | < 400 nM | < 400 nM
10 | Cc1ccn(-c2ccc(S(=O)(=O)Nc3c(C)ccc4cnn(C)c34)cn2)n1 [Example I-34, N-(1,6-dimethyl-1H-indazol-7-yl)-6-(3-methyl-1H-pyrazol-1-yl)pyridine-3-sulfonamide] | 400 to 1000 nM | < 400 nM
11 | COc1cnn(-c2ccc(S(=O)(=O)Nc3cccc4cnn(C)c34)cn2)c1 [Example I-35, 6-(4-Methoxy-1H-Pyrazol-1-yl)-N-(1-Methyl-1H-Indazol-7-yl)Pyridine-3-Sulfonamide] | < 400 nM | > 2500 nM
12 | CC(C)c1ccn(-c2ccc(S(=O)(=O)Nc3cccc4cnn(C)c34)cn2)n1 [Example I-36, 6-(3-Isopropyl-1H-Pyrazol-1-yl)-N-(1-Methyl-1H-Indazol-7-yl)Pyridine-3-Sulfonamide] | < 400 nM | > 2500 nM
13 | Cc1ncn(-c2ccc(S(=O)(=O)Nc3cccc4cnn(C)c34)cn2)n1 [Example I-37, 6-(3-Methyl-1H-1,2,4-Triazol-1-yl)-N-(1-Methyl-1H-Indazol-7-yl)Pyridine-3-Sulfonamide] | 1000 to 2500 nM | > 2500 nM

The next lines start with the values.

Row | IC50 [1] | IC50 [2] | Compound
14 | < 400 nM | 1000 to 2500 nM | Cn1ncc2cccc(NS(=O)(=O)c3ccc(-n4cc(F)cn4)nc3)c21 [Example I-38, 6-(4-Fluoro-1H-Pyrazol-1-yl)-N-(1-Methyl-1H-Indazol-7-yl) Pyridine-3-Sulfonamide]
15 | 400 to 1000 nM | > 2500 nM | Cn1ncc2cccc(NS(=O)(=O)c3ccc(-n4cc(C#N)cn4)nc3)c21 [Example I-39, 6-(4-Cyano-1H-Pyrazol-1-yl)-N-(1-Methyl-1H-Indazol-7-yl)Pyridine-3-Sulfonamide]
16 | < 400 nM | > 2500 nM | Cc1cc(C)n(-c2ccc(S(=O)(=O)Nc3cccc4cnn(C)c34)cn2)n1 [Example I-40, 6-(3,5-Dimethyl-1H-Pyrazol-1-yl)-N-(1-Methyl-1H-Indazol-7-yl)Pyridine-3-Sulfonamide]
17 | 400 to 1000 nM | < 400 nM | Cn1ncc2cccc(NS(=O)(=O)c3ccc(-n4cc([N+](=O)[O-])cn4)nc3)c21 [Example I-41, N-(1-Methylindazol-7-yl)-6-(4-Nitropyrazol-1-yl)Pyridine-3-Sulfonamide]
18 | < 400 nM | > 2500 nM | Cc1nn(-c2ccc(S(=O)(=O)Nc3cccc4cnn(C)c34)cn2)c(C)c1Cl [Example I-42, 6-(4-Chloro-3,5-Dimethyl-1H-Pyrazol-1-yl)-N-(1-Methyl-1H-Indazol-7-yl) Pyridine-3-Sulfonamide]
19 | < 400 nM | 1000 to 2500 nM | Cc1cc(C(F)(F)F)nn1-c1ccc(S(=O)(=O)Nc2cccc3cnn(C)c23)cn1 [Example I-43, 6-[5-Methyl-3-(Trifluoromethyl)Pyrazol-1-Yl]-N-(1-Methylindazol-7-yl)Pyridine-3-Sulfonamide]
20 | < 400 nM | 400 to 1000 nM | Cc1cn(-c2ccc(S(=O)(=O)Nc3cccc4cnn(C)c34)cn2)nc1C(F)(F)F [Example I-44, 6-[4-Methyl-3-(Trifluoromethyl)Pyrazol-1-Yl]-N-(1-Methylindazol-7-yl)Pyridine-3-Sulfonamide]
21 | < 400 nM | < 400 nM | COc1ccc2cnn(C)c2c1N(C)S(=O)(=O)c1ccc(-c2cc(C(F)(F)F)n[nH]2)nc1 [Example I-48, N-(6-Methoxy-1-Methyl-1H-Indazol-7-yl)-N-Methyl-6-(3-(Trifluoromethyl)-1H-Pyrazol-5-yl)Pyridine-3-Sulfonamide]
22 | < 400 nM | < 400 nM | COc1ccc2cnn(C)c2c1NS(=O)(=O)c1ccc(-c2cc(C(F)(F)F)n(C)n2)nc1 [Example I-49, N-(6-Methoxy-1-Methyl-1H-Indazol-7-yl)-6-(1-Methyl-5-(Trifluoromethyl)-1H-Pyrazol-3-yl)Pyridine-3-Sulfonamide]
